In article PMC6130310 (Frontiers in Molecular Neuroscience, 2018):
Values belong to the molecule of their own block, whether it stands above or below them.

What was measured:
Experiment in all cases: two-electrode voltage clamp, Xenopus oocytes
[1] = molecular target: T1, zGlyRα3/ßb (Danio rerio, UniProt A0A8M1PA31+Q6DC22); assay type: cell-based
T1 construct: gene glra3; full-length cDNAs in pCS2+, cRNAs co-injected 1:1 in Xenopus laevis oocytes; heteropentamer
T1 sequence (A0A8M1PA31 28-450): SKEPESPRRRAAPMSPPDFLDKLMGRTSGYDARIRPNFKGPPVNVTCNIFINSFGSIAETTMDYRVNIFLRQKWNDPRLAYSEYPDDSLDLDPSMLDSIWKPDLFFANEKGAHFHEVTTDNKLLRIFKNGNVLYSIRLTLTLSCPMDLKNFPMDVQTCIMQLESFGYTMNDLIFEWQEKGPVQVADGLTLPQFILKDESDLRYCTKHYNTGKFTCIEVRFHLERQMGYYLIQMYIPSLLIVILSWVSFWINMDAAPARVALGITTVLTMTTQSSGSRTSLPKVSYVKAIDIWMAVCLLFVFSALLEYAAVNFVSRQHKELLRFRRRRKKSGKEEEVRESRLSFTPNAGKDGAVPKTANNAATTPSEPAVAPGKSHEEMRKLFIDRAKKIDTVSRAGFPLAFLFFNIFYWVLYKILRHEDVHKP
T1 sequence (Q6DC22 23-494): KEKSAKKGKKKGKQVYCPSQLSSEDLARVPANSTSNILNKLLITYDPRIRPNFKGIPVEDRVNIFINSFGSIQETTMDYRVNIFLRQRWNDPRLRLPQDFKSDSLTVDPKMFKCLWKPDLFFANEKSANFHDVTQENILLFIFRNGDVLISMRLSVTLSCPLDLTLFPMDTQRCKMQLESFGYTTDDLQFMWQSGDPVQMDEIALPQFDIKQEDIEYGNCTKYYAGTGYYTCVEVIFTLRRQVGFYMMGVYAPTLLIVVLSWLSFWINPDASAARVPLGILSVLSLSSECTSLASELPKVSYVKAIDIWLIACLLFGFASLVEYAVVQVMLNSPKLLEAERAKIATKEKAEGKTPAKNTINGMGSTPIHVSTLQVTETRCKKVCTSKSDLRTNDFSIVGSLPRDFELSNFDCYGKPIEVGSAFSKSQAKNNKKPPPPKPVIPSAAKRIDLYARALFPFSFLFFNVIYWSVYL
Text: two-electrode voltage clamp, Xenopus oocytes on zGlyRα3/ßb

[2] = system: T2, zGlyRα1/ßa; assay type: cell-based, Danio rerio; conditions: -50 mV, pH 7.5, heteromers alpha:beta cRNA 1:1
T2 construct: gene glra1; full-length cDNAs in pCS2+, cRNAs co-injected 1:1 in Xenopus laevis oocytes; heteropentamer
Text: two-electrode voltage clamp, Xenopus oocytes on zGlyRα1/ßa

[3] = molecular target: T3, zGlyRα2 homomer (Danio rerio, UniProt F1R8P4); assay type: cell-based
T3 construct: gene glra2; full-length cDNA in pCS2+, Kozak added; cRNA in Xenopus laevis oocytes; homopentamer; not the earlier 'zGlyRα2' (now α4a)
T3 sequence (F1R8P4 28-449): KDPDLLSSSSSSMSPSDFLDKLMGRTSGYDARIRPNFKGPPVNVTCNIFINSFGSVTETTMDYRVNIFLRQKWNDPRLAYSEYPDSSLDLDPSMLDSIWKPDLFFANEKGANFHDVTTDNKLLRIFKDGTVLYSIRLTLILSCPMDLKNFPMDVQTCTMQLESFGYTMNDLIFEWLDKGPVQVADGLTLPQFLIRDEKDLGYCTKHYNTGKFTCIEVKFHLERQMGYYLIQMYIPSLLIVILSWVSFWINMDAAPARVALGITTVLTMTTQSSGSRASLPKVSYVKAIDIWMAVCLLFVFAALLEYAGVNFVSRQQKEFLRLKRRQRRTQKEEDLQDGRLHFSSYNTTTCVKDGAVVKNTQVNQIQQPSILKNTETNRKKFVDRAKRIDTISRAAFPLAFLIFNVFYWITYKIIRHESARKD
Text: two-electrode voltage clamp, Xenopus oocytes on zGlyRα2 homomer

[4] = molecular target: T4, zGlyRα4b homomer (Danio rerio, UniProt A0A8M1P2L1); assay type: cell-based
T4 construct: gene glra4b; full-length cDNA in pCS2+, Kozak added; cRNA in Xenopus laevis oocytes; homopentamer
T4 sequence (A0A8M1P2L1 25-492): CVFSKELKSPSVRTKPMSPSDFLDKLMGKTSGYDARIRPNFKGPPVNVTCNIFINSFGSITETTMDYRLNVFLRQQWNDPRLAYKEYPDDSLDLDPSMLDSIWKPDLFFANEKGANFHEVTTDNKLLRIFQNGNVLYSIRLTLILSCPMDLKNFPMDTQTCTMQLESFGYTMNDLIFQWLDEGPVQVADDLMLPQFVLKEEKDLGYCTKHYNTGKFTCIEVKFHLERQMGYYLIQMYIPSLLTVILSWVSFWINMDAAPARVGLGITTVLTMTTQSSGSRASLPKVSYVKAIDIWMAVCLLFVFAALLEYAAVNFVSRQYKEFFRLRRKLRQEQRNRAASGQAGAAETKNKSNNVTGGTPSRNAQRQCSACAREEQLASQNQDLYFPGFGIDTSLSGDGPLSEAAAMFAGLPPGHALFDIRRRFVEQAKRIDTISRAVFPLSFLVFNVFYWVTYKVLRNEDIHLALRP
Text: two-electrode voltage clamp, Xenopus oocytes on zGlyRα4b homomer

[5] = molecular target: T5, zGlyRα4a homomer (Danio rerio, UniProt F1RDZ6); assay type: cell-based
T5 construct: gene glra4a; full-length cDNA in pCS2+, Kozak added; cRNA in Xenopus laevis oocytes; homopentamer
T5 sequence (F1RDZ6 28-457): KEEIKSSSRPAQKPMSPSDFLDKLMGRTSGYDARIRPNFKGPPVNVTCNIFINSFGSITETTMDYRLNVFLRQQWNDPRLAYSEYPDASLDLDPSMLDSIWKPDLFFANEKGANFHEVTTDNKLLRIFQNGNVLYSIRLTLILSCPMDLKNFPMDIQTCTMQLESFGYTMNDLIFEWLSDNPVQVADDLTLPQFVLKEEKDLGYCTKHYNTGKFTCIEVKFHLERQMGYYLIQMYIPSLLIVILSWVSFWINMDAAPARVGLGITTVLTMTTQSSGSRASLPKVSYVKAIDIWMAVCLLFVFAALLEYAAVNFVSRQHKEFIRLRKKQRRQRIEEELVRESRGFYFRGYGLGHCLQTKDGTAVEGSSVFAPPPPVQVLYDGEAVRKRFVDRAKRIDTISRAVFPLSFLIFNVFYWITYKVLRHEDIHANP
Text: two-electrode voltage clamp, Xenopus oocytes on zGlyRα4a homomer

[6] = molecular target: T6, zGlyRα4a/ßb (Danio rerio, UniProt F1RDZ6+Q6DC22); assay type: cell-based
T6 construct: gene glra4a; full-length cDNAs in pCS2+, cRNAs co-injected 1:1 in Xenopus laevis oocytes; heteropentamer
T6 sequence (F1RDZ6 28-457): T5 sequence (F1RDZ6 28-457)
T6 sequence (Q6DC22 23-494): T1 sequence (Q6DC22 23-494)
Text: two-electrode voltage clamp, Xenopus oocytes on zGlyRα4a/ßb

[7] = molecular target: T7, zGlyRα4b/ßa (Danio rerio, UniProt A0A8M1P2L1+A0ACM8PZL4); assay type: cell-based
T7 construct: gene glra4b; full-length cDNAs in pCS2+, cRNAs co-injected 1:1 in Xenopus laevis oocytes; heteropentamer
T7 sequence (A0ACM8PZL4 23-498, one chain of several): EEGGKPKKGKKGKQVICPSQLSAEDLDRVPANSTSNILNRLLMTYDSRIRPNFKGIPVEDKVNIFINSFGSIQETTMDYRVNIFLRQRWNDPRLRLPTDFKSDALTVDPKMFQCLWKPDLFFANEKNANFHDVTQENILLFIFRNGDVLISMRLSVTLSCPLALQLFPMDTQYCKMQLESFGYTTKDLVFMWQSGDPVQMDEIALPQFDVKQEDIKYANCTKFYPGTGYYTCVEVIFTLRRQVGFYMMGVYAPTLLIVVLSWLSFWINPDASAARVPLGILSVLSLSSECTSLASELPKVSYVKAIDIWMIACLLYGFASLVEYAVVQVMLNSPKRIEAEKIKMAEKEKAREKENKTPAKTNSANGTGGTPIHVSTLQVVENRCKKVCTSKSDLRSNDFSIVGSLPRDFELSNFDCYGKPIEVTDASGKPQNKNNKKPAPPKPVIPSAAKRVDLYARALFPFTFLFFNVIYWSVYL
Text: two-electrode voltage clamp, Xenopus oocytes on zGlyRα4b/ßa

[8] = system: T8, zGlyRα1/ßb; assay type: cell-based, Danio rerio; conditions: -50 mV, pH 7.5, heteromers alpha:beta cRNA 1:1
T8 construct: gene glra1; full-length cDNAs in pCS2+, cRNAs co-injected 1:1 in Xenopus laevis oocytes; heteropentamer
Text: two-electrode voltage clamp, Xenopus oocytes on zGlyRα1/ßb

[9] = molecular target: T9, zGlyRα4b/ßb (Danio rerio, UniProt A0A8M1P2L1+Q6DC22); assay type: cell-based
T9 construct: gene glra4b; full-length cDNAs in pCS2+, cRNAs co-injected 1:1 in Xenopus laevis oocytes; heteropentamer
T9 sequence (A0A8M1P2L1 25-492): T4 sequence (A0A8M1P2L1 25-492)
T9 sequence (Q6DC22 23-494): T1 sequence (Q6DC22 23-494)
Text: two-electrode voltage clamp, Xenopus oocytes on zGlyRα4b/ßb

[10] = molecular target: T10, zGlyRα3 homomer (Danio rerio, UniProt A0A8M1PA31); assay type: cell-based
T10 construct: gene glra3; full-length cDNA in pCS2+, Kozak added; cRNA in Xenopus laevis oocytes; homopentamer
T10 sequence (A0A8M1PA31 28-450): T1 sequence (A0A8M1PA31 28-450)
Text: two-electrode voltage clamp, Xenopus oocytes on zGlyRα3 homomer

[11] = molecular target: T11, zGlyRα2/ßa (Danio rerio, UniProt A0ACM8PZL4+F1R8P4); assay type: cell-based
T11 construct: gene glra2; full-length cDNAs in pCS2+, cRNAs co-injected 1:1 in Xenopus laevis oocytes; heteropentamer
T11 sequence (A0ACM8PZL4 23-498, one chain of several): as above
Text: two-electrode voltage clamp, Xenopus oocytes on zGlyRα2/ßa

[12] = molecular target: T12, zGlyRα3/ßa (Danio rerio, UniProt A0A8M1PA31+A0ACM8PZL4); assay type: cell-based
T12 construct: gene glra3; full-length cDNAs in pCS2+, cRNAs co-injected 1:1 in Xenopus laevis oocytes; heteropentamer
T12 sequence (A0ACM8PZL4 23-498, one chain of several): as above
Text: two-electrode voltage clamp, Xenopus oocytes on zGlyRα3/ßa

[13] = molecular target: T13, zGlyRα4a/ßa (Danio rerio, UniProt A0ACM8PZL4+F1RDZ6); assay type: cell-based
T13 construct: gene glra4a; full-length cDNAs in pCS2+, cRNAs co-injected 1:1 in Xenopus laevis oocytes; heteropentamer
T13 sequence (A0ACM8PZL4 23-498, one chain of several): as above
Text: two-electrode voltage clamp, Xenopus oocytes on zGlyRα4a/ßa

[14] = molecular target: T14, zGlyRα2/ßb (Danio rerio, UniProt F1R8P4+Q6DC22); assay type: cell-based
T14 construct: gene glra2; full-length cDNAs in pCS2+, cRNAs co-injected 1:1 in Xenopus laevis oocytes; heteropentamer
T14 sequence (F1R8P4 28-449): T3 sequence (F1R8P4 28-449)
T14 sequence (Q6DC22 23-494): T1 sequence (Q6DC22 23-494)
Text: two-electrode voltage clamp, Xenopus oocytes on zGlyRα2/ßb

[15] = molecular target: T15, zGlyRα1 homomer (Danio rerio, UniProt O93430); assay type: cell-based
T15 construct: gene glra1; full-length cDNA in pCS2+, Kozak added; cRNA in Xenopus laevis oocytes; homopentamer
T15 sequence (O93430 25-444): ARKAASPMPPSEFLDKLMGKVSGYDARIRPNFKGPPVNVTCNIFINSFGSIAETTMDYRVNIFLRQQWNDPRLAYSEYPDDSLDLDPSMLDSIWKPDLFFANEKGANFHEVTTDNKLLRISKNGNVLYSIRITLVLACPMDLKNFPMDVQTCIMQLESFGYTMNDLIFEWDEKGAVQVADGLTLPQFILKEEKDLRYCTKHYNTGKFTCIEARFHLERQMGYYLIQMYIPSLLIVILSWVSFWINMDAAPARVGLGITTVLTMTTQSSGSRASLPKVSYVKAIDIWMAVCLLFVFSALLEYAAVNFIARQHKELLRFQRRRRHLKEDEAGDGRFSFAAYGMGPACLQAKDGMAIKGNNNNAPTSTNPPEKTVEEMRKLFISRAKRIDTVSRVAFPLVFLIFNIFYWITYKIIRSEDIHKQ
Text: two-electrode voltage clamp, Xenopus oocytes on zGlyRα1 homomer

[16] = read-out: Strychnine / IC50, competitive antagonist, block of current evoked by 200 μM glycine
[17] = read-out: Glycine / EC50, agonist

Compound: O=C1C[C@@H]2OCC=C3CN4CC[C@]56c7ccccc7N1[C@H]5[C@H]2[C@H]3C[C@H]46 [strychnine]
- IC50 [1]: 0.041 ± 0.0081 µM
- IC50 [2, 16]: 0.012 ± 0.004 µM
- IC50 [3]: 0.212 ± 0.037 µM
- IC50 [4]: 0.052 ± 0.011 µM
- IC50 [5]: 0.055 ± 0.012 µM
- IC50 [6]: 0.018 ± 0.0026 µM
- IC50 [7]: 0.081 ± 0.016 µM
- IC50 [8, 16]: 0.074 ± 0.017 µM
- IC50 [9]: 0.021 ± 0.0031 µM
- IC50 [10]: 0.021 ± 0.008 µM
- IC50 [11]: 0.292 ± 0.043 µM
- IC50 [12]: 0.083 ± 0.016 µM
- IC50 [13]: 0.043 ± 0.022 µM
- IC50 [14]: 0.121 ± 0.016 µM

- EC50 [1]: 260 ± 20 µM
- EC50 [2, 17]: 186 ± 10 µM
- EC50 [3]: 138 ± 10 µM
- EC50 [4]: 134 ± 15 µM
- EC50 [5]: 200 ± 16 µM
- EC50 [6]: 404 ± 24 µM
- EC50 [15]: 102 ± 5.8 µM
- EC50 [7]: 236 ± 17 µM
- EC50 [8, 17]: 194 ± 18 µM
- EC50 [9]: 221 ± 15 µM
- EC50 [10]: 125 ± 7.9 µM
- EC50 [11]: 307 ± 30 µM
- EC50 [12]: 521 ± 52 µM
- EC50 [13]: 458 ± 82 µM
- EC50 [14]: 343 ± 64 µM
Compound: NCC(=O)O [glycine]
